Source: patent US20100075343A1, “NOVEL PEPTIDES” (priority 2007, published 2010)
Entries after “also recorded” stand apart in the source; their conditions may differ.

Key:
[1] = system: hypothalamic cells of the apoaequorin-expressing mice; assay: Intracellular calcium ion increase (aequorin luminescence), hypothalamus; assay type: cell-based, mouse; settings: for increase of intracellular calcium concentration in hypothalamic cells (RLU per second): added at 25 seconds; for luminescence (intracellular calcium ion increase) in hypothalamus: peptide at final concentrations of 1 μmol/L and 5 μmol/L
Experimental: (§1) A hypothalamus, pituitary gland, kidney, heart, blood vessel, or a portion of brain tissue is collected from transgenic mice systemically expressing apoaequorin (WO02/010371) produced by introducing an apoaequorin gene expression vector into fertilized eggs. The obtained hypothalamus, pituitary gland, kidney, heart, blood vessel, or brain tissue is cut finely into pieces, suspended in a medium containing coelenterazine, and then incubated to incorporate coelenterazine into the cells to form aequorin (a complex of apoaequorin and coelenterazine). Since aequorin luminesces upon binding to intracellular calcium ions, the relative luminescence level in cells before and after addition of a medium containing the peptide or a pharmaceutically acceptable salt thereof is measured in a luminometer every second over time and is used as an indicator of intracellular calcium ion concentration. Increase in the relative luminescence level due to addition of the peptide or pharmaceutically acceptable salt thereof confirms that the peptide or pharmaceutically acceptable salt thereof has the activity to increase intracellular calcium ion concentration.
(§2) Whether Peptides 1 to 8 synthesized in Example 2 have the activity of increasing intracellular calcium ion concentration was investigated using the organs of transgenic mice introduced with the apoaequorin gene and systemically expressing apoaequorin (hereinafter referred to as apoaequorin-expressing mice). In apoaequorin-expressing mouse cells, light is emitted when apoaequorin binds to a calcium ion in the presence of the luminescent substrate coelenterazine and thus the intracellular calcium ion concentration can be monitored. Patent Document (WO02/010371) discloses the method for producing apoaequorin-expressing mice, method for evaluating biologically active substances that use biological samples derived from the mice, and experimental results of evaluating biologically active peptides using the mouse organs as shown below. […] Therefore, apoaequorin-expressing mice can be used in the evaluation of the physiological activities of novel peptides.
(§3) Apoaequorin-expressing mice were produced according to the method disclosed in Reference Example 4 of Patent Document (WO02/010371). The apoaequorin-expressing mice were sacrificed, individual organs including thymus, hypothalamus, spleen, bone, aorta, heart, kidney, adrenal gland, pancreas, pituitary gland, uterus, medulla oblongata, and spinal cord were removed; and each of the organs was cut into small cubes of approximately 1 to 2 mm^3. Next, in 5-mL tubes (Rohren-Tubes; manufactured by Sarstedt, No. 55.476), three portions of each of the prepared organs were added to 50 μL of a 10 μmol/L solution of coelenterazine (manufactured by Molecular Probes) dissolved in RPMI 1640 medium, and these were cultured at 37° C. for three hours. After culturing, RPMI 1640 medium was added, and then Peptides 1 to 5 dissolved in RPMI 1640 medium were added 25 seconds after the addition of RPMI 1640 until each peptide had final concentrations of 1 μmol/L and of 5 μmol/L, and the relative luminescence levels were measured every second immediately after the addition of RPMI 1640 medium by using a luminometer (AutoLumat LB953, manufactured by Berthold).

[2] = system: medulla oblongata of apoaequorin-expressing mice; assay: Intracellular calcium ion increase (aequorin luminescence), medulla oblongata; assay type: cell-based, mouse; settings: peptide at final concentrations of 1 μmol/L and 5 μmol/L
Experimental: as §1, §2, §3

[3] = system: pituitary cells of the apoaequorin-expressing mice; assay: Intracellular calcium ion increase (aequorin luminescence), pituitary gland; assay type: cell-based, mouse; settings: for increase of intracellular calcium concentration in pituitary cells (RLU per second): added at 25 seconds; for luminescence (intracellular calcium ion increase) in pituitary gland: peptide at final concentrations of 1 μmol/L and 5 μmol/L
Experimental: as §1, §2, §3

[4] = system: thymus of apoaequorin-expressing mice; assay: Intracellular calcium ion increase (aequorin luminescence), thymus; assay type: cell-based, mouse; settings: peptide at final concentrations of 1 μmol/L and 5 μmol/L
Experimental: as §1, §2
(§4) Apoaequorin-expressing mice were produced according to the method disclosed in Reference Example 4 of Patent Document (WO02/010371). […] After culturing, RPMI 1640 medium was added, and then Peptides 1 to 5 dissolved in RPMI 1640 medium were added 25 seconds after the addition of RPMI 1640 until each peptide had final concentrations of 1 μmol/L and of 5 μmol/L, and the relative luminescence levels were measured every second immediately after the addition of RPMI 1640 medium by using a luminometer (AutoLumat LB953, manufactured by Berthold).

[5] = system: nerve endings in the posterior pituitary gland of AVP-eGFP Tg rats; assay: Continuous measurement of AVP-eGFP fluorescence in rat posterior pituitary gland (vasopressin release); assay type: cell-based; settings: peptide at final concentration of 10^−6 M in perfusate, last five minutes; control (basal) taken as 1
Excerpt: In transgenic (Tg) rats produced using a fusion gene, which is a vasopressin (arginine vasopressin: AVP) gene inserted with the enhanced green fluorescent protein (eGFP) gene, eGFP is expressed specifically in AVP neurons of the hypothalamus-pituitary system and their axons (Ueta et al., Endocrinology, 146, 406-413, 2005). Vasopressin secretion-promoting activity can be measured using pituitary gland excised from such AVP-eGFP Tg rats.
The pituitary gland is excised from an AVP-eGFP Tg rat and placed in a chamber of a perfusion apparatus filled with perfusate (140 mM NaCl, 5 mM KCl, 10 mM HEPES, 10 mM glucose, 1.2 mM KH2PO4, 1.2 mM MgCl2, 2 mM CaCl2; the pH and osmotic pressure are adjusted to 7.37 and 295 to 300 mOsml, respectively). Laser beam (488 nm) from an excitation light irradiation device (^161C; manufactured by Spectra Physics), is irradiated onto the posterior pituitary gland through an optical fiber (GIF625-100; manufactured by Thorlabs). The eGFP fluorescent light as a result of excitation at nerve endings in the posterior pituitary gland is collected by a phototube (R6249HA; Hamamatsu Photonics) through another optical fiber. After conversion into an electric signal, it can be amplified with an amplifier (C7246; manufactured by Hamamatsu Photonics) to observe the change in the eGFP fluorescence. The amount of change serves as an indicator for the amount of change of AVP-eGFP present in the pituitary gland, and the vasopressin secretion-promoting activity of the VGF-related peptide or a pharmaceutically acceptable salt thereof can be measured.
Specifically, the recording time is set to 10 minutes. As a control (basal), only the perfusate is administered in the first five minutes. Then, a mixture of the perfusate and the VGF-related peptide or a pharmaceutically acceptable salt thereof prepared to have a final concentration of 10^−6 M is administered in the last five minutes. The amount of vasopressin secreted from the pituitary gland can be measured by observing changes in the eGFP fluorescence. […]

[6] = system: cardiac cells of the apoaequorin-expressing mice; assay: Intracellular calcium ion increase (aequorin luminescence), heart; assay type: cell-based, mouse; settings: for luminescence (intracellular calcium ion increase) in heart: peptide at final concentrations of 1 μmol/L and 5 μmol/L
Experimental: as §1, §2, §3

[7] = system: spleen of apoaequorin-expressing mice; assay: Intracellular calcium ion increase (aequorin luminescence), spleen; assay type: cell-based, mouse; settings: peptide at final concentrations of 1 μmol/L and 5 μmol/L
Experimental: as §1, §2, §4

[8] = system: spinal cord of apoaequorin-expressing mice; assay: Intracellular calcium ion increase (aequorin luminescence), spinal cord; assay type: cell-based, mouse; settings: peptide at final concentrations of 1 μmol/L and 5 μmol/L
Experimental: (§5) A hypothalamus, pituitary gland, kidney, heart, blood vessel, or a portion of brain tissue is collected from transgenic mice systemically expressing apoaequorin (WO02/010371) produced by introducing an apoaequorin gene expression vector into fertilized eggs. The obtained hypothalamus, pituitary gland, kidney, heart, blood vessel, or brain tissue is cut finely into pieces, suspended in a medium containing coelenterazine, and then incubated to incorporate coelenterazine into the cells to form aequorin (a complex of apoaequorin and coelenterazine). Since aequorin luminesces upon binding to intracellular calcium ions, the relative luminescence level in cells before and after addition of a medium containing the peptide or a pharmaceutically acceptable salt thereof is measured in a luminometer every second over time and is used as an indicator of intracellular calcium ion concentration. Increase in the relative luminescence level due to addition of the peptide or pharmaceutically acceptable salt thereof confirms that the peptide or pharmaceutically acceptable salt thereof has the activity to increase intracellular calcium ion concentration. […]

[9] = system: kidney cells of the apoaequorin-expressing mice; assay: Intracellular calcium ion increase (aequorin luminescence), kidney; assay type: cell-based, mouse
Experimental: as §1, §2, §3

[10] = system: aortic cells of the apoaequorin-expressing mice; assay: Intracellular calcium ion increase (aequorin luminescence), aorta; assay type: cell-based, mouse
Experimental: as §1, §2, §4

[11] = system: uterus of apoaequorin-expressing mice; assay: Intracellular calcium ion increase (aequorin luminescence), uterus; assay type: cell-based, mouse; settings: peptide at final concentrations of 1 μmol/L and 5 μmol/L
Experimental: as §5

[12] = 1 μmol/L peptide, added at 25 seconds
[13] = peptide at final concentrations of 1 μmol/L and 5 μmol/L

Substance	increase of intracellular calcium concentration in hypothalamic cells (RLU per second) ([1]; 1 μmol/L peptide)	luminescence (intracellular calcium ion increase) in hypothalamus [1]	luminescence (intracellular calcium ion increase) in medulla oblongata [2]	increase of intracellular calcium concentration in pituitary cells (RLU per second) ([3]; 5 μmol/L peptide)	luminescence (intracellular calcium ion increase) in pituitary gland [3]	luminescence (intracellular calcium ion increase) in thymus [4]	vasopressin release from nerve endings in the posterior pituitary gland (change in eGFP fluorescence) [5]	increase of intracellular calcium concentration in cardiac cells (RLU per second) ([6]; 5 μmol/L peptide, added at 25 seconds)	luminescence (intracellular calcium ion increase) in heart [6]	luminescence (intracellular calcium ion increase) in spleen [7]	increase of intracellular calcium concentration in pituitary cells (RLU per second) ([3]; 1 μmol/L peptide)	luminescence (intracellular calcium ion increase) in spinal cord [8]	increase of intracellular calcium concentration in hypothalamic cells (RLU per second) ([1]; 5 μmol/L peptide)	increase of intracellular calcium concentration in kidney cells (RLU per second) [9, 12]	luminescence (intracellular calcium ion increase) in kidney [9, 13]	increase of intracellular calcium concentration in aortic cells (RLU per second) [10, 12]	luminescence (intracellular calcium ion increase) in aorta [10, 13]	luminescence (intracellular calcium ion increase) in uterus [11]
Peptide 1: amino acid sequence at position 177 to 206 in human VGF (QQETAAAETETRTHTLTRVNLESPGPERVW; synthetic Peptide 1, VGF-related peptide, human VGF positions 177-206)	increase of intracellular calcium concentration	luminescence was observed	luminescence was observed	increase of intracellular calcium concentration	luminescence was observed	luminescence was observed	reduced eGFP fluorescence; also recorded: vasopressin release	–	–	–	–	–	–	–	–	–	–	–
Peptide 8: amino acid sequence at position 423 to 430 in rat VGF (SQEEAPGH; synthetic Peptide 8, VGF-related peptide, rat VGF positions 423-430)	–	–	luminescence was observed	–	luminescence was observed	luminescence was observed	–	increase of intracellular calcium concentration	luminescence was observed	luminescence was observed	increase of intracellular calcium concentration	luminescence was observed	–	–	–	–	–	–
Peptide 6: amino acid sequence at position 353 to 372 in rat VGF (GLQETQQERENEREEEAEQE; synthetic Peptide 6, VGF-related peptide, rat VGF positions 353-372)	–	luminescence was observed	luminescence was observed	increase of intracellular calcium concentration	luminescence was observed	luminescence was observed	–	–	luminescence was observed	luminescence was observed	–	–	increase of intracellular calcium concentration	increase of intracellular calcium concentration	luminescence was observed	increase of intracellular calcium concentration	luminescence was observed	luminescence was observed
Peptide 12: amino acid sequence at position 556 to 585 in rat VGF (TLQPPASSRRRHFHHALPPARHHPDLEAQA; synthetic Peptide 12, VGF-related peptide, rat VGF positions 556-585)	–	–	–	increase of intracellular calcium concentration	luminescence was observed	–	reduced eGFP fluorescence; also recorded: vasopressin release	–	–	–	–	–	–	–	–	–	–	–
Peptide 11: amino acid sequence at position 533 to 552 in human VGF (EEDEVYPPGPYHPFPNYIRP; synthetic Peptide 11, VGF-related peptide, human VGF positions 533-552)	increase of intracellular calcium concentration	luminescence was observed	–	increase of intracellular calcium concentration	luminescence was observed	–	reduced eGFP fluorescence; also recorded: vasopressin release	–	–	–	–	–	–	–	–	–	–	–
